Several values for one entry are separate records, joined by “and”; a condition that tells them apart may be missing. Identical values can stand only once. Like-named read-outs stand apart in the source and are kept apart here.
How the values were obtained:
[1] = system: DOHH-2 cells highly expressing human CD79B protein; type: cell-based; settings: DoHH2 cells, 20 μg/mL ADC, 37° C.
Protocol: A cell endocytosis experiment was performed with DOHH-2 cells (DSMZ, ACC 47) highly expressing human CD79B protein to assess the endocytosis ability of ADCs.
The cells were collected by low temperature centrifugation at 4° C. for 5 min at 1000 rpm during the experiment. The cells were resuspended in 10-15 mL of FACS buffer pre-cooled on ice. The FACS buffer was composed of phosphate buffered saline (PBS), pH 7.4, with 2% fetal bovine serum (FBS). Throughout the experiment, FACS buffer was pre-cooled on ice. The cells were counted and centrifuged, and added to a 96-well plate at 300,000 cells/well. After centrifugation, the supernatant was discarded, and 12.5 μg/mL Fc blocking solution (BD, Cat No.: 564220) was added at 100 μL/well. Blocking was performed at room temperature for 10 min. Then, 20 μg/mL test ADC was added to the corresponding wells, and the plate was incubated at 4° C. for 1 h away from the light. The plate was washed twice with a pre-cooled PBS buffer to remove unbound ADCs. A complete cell culture medium (RPMI 1640 medium with 10% fetal bovine serum) was added, and the plate was incubated at 37° C. with 5% CO2 for 0 h and 4 h. […] The cells were resuspended in an FACS buffer at 200 μL/well and detected using a flow cytometer (BD FACS Calibur).

DoHH2 = type: cell-based, human; settings: DoHH2 (CD79B high-expression), 72 h, MTT
Protocol: (§1) This example was performed to evaluate the effect of different ADCs on the proliferation of DoHH2, WSU-DLCL2 and Raji cells cultured in vitro.
(§2) A certain number of cells in logarithmic growth phase were seeded into a 96-well culture plate, and drugs at different concentrations were added to the culture plate for reaction for 72 h. After the reaction was completed, an MTT working solution was added for reaction for 4 h, then blue-purple crystalline formazan was dissolved with a triplex solution.
(§3) From the inhibition rate at each concentration, the half maximal inhibitory concentration IC50 was calculated using PrismGraph 8.

WSU-DLCL2 = type: cell-based, human; settings: WSU-DLCL2 (CD79B low-expression), 72 h, MTT
Protocol: as §1, §2, §3

Raji = type: cell-based; settings: Raji (CD79B negative-expression), 72 h, MTT
Protocol: as §1, §2, §3

[2] = system: human diffuse large B-cell lymphoma WSU-DLCL2-induced nude mouse subcutaneous xenograft tumor; type: in vivo, nude mice (BALB/c-nu); settings: for Mean tumor volume (mm^3 ± SEM) D0 / Mean tumor volume (mm^3 ± SEM) D21 / Tumor growth inhibition (%) D21 / T/C (%) D21 / Partial regression: IV; for Mean tumor volume (mm^3 ± SEM) D0: baseline at grouping; for Mean tumor volume (mm^3 ± SEM) D21 / Tumor growth inhibition (%) D21 / T/C (%) D21 / Partial regression: single dose D0; for T/C (%) D21: control IgG1; for Partial regression: tumors (of 6) with volume on D21 less than on D0
Protocol: This example was performed to evaluate and compare the efficacy of ADC drugs on nude mouse subcutaneous xenograft tumor.
Cells and mice: human diffuse large B-cell lymphoma WSU-DLCL2 cells were purchased from American Type Culture Collection. WSU-DLCL2 cells were cultured in a 10 cm petri dish with an RPMI 1640 culture medium (Gibco) containing 10% fetal bovine serum, penicillin and streptomycin and incubated in an incubator at 37° C. with 5% CO2. Subculturing was performed 2-3 times a week, and cells were collected, counted and seeded when they were in exponential growth phase.
Nude mice, BALB/c-nu, 35 days of age, female, were purchased from Beijing Huafukang Biotechnology Co., Ltd, with production license number of SCXK (Beijing) 2019-0008, and animal certification number of 1103222011004014. Housing environment: SPF grade.
The experimental index is to study the effect of the drug on the tumor growth, and the specific index is T/C % or tumor growth inhibition TGI (%).
Tumor diameters were measured twice a week with a vernier caliper and tumor volume (V) was calculated according to the following formula: V=½×a×b^2, where a and b represent length and width, respectively.
T/C (%)=(T−T0)/(C−C0)×100, where T and C represent the tumor volume of animals at the end of the experiment in the treatment group and control group, respectively; T0 and C0 represent the tumor volume of animals at the beginning of the experiment in the treatment group and control group, respectively; where T is the tumor volume of the ADC administered and C is the tumor volume of IgG1 administered as a control group.
At the end of the experiment, at the experiment endpoint, or when the mean tumor volume in the solvent group reached 1500 mm^3, the animals were sacrificed by CO2 anesthesia and dissected to give the tumors. The tumors were photographed. Unless otherwise indicated, comparison between tumor volumes of the two groups was made by two-way ANOVA test, with P<0.05 defined as statistically significant difference.

[3] = system: human diffuse large B-cell lymphoma WSU-DLCL2-induced nude mouse subcutaneous xenograft tumor; type: in vivo, nude mice (BALB/c-nu); settings: 3 mg/kg, IV
Protocol: This example was performed to further evaluate and compare the efficacy of ADC drugs on WSU-DLCL2-induced nude mouse subcutaneous xenograft tumor.
Experimental steps: each nude mouse was subcutaneously inoculated with 2×10^7 WSU-DLCL2 cells, and after the tumor volume reached 100-150 mm^3, the animals were grouped according to tumor volume (D0). The mice were administrated by intravenous injection (IV) at an administration volume of 10 mL/kg. The tumor volumes and body weights were measured twice a week and the results were recorded.
Unless otherwise indicated, comparison between tumor volumes of the two groups was made by two-tailed Student's t-test, with P<0.05 defined as statistically significant difference.

[4] = system: human follicular lymphoma DOHH-2-induced nude mouse subcutaneous xenograft tumor; type: in vivo, nude mice (BALB/c-nu); settings: 1 mg/kg, IV
Protocol: This example was performed to further evaluate and compare the efficacy of ADC drugs on DoHH2-induced nude mouse subcutaneous xenograft tumor.
2. Cells and mice: DOHH-2 cells were purchased from DSMZ, Germany.
Nude mice, BALB/c-nu, 4-5 weeks of age, female, were purchased from Shanghai Lingchang Biotechnology Co., Ltd, with production license number of SCXK (Shanghai) 2018-0003, and animal certification number of 20180003010222. Housing environment: SPF grade.
3. […] The mice were administrated by intravenous injection (IV) at an administration volume of 10 mL/kg.
At the end of the experiment, at the experiment endpoint, or when the mean tumor volume in the solvent group reached 1500 mm^3, the animals were sacrificed by CO2 anesthesia and dissected to give the tumors. The tumors were photographed.

human CD79B = target: T1, human CD79B (Homo sapiens, UniProt P40259); test: Biacore affinity assay of CD79B antibodies and ADCs; parameters: His; purchased Sino Biological 29750-H08H; settings: binding force to human CD79B protein
T1 sequence (P40259 29-159 limits assumed): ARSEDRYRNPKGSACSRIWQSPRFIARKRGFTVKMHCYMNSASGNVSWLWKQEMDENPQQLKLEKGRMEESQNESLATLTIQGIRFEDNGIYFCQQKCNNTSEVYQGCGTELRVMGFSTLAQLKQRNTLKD
Text: Experimental instruments, materials and reagents: Biacore T200 (GE); biosensor chip CM5 (Cat. #BR-1005-30, GE); amino coupling kit (Cat. #BR-1000-50, GE); human antibody capture kit (Cat. #BR-1008-39, GE); human CD79B-His protein (Cat. #29750-H08H, Sino Biological); HBS-EP+10× buffer (Cat. #BR-1006-69, GE) diluted to 1× (pH 7.4) with D. I. Water.
Experimental procedures: human antibody capture antibodies were covalently coupled to a CM5 biochip according to the method described instructions of the human antibody capture kit for affinity capture of a certain amount of CD79B antibody.
Statistics and analysis of data: data were fitted by BIAevaluation version 4.1, GE software using a (1:1) Langmuir model to obtain affinity values.

Q: What does the source list for “ADC-8: SN8 conjugated with MC-VC-PAB-MMAE; positive drug ADC-8 (namely Polivy) [reference compound]”?
A: Endocytosis rate (4 h) [1]: 76%; IC50 (DoHH2): 0.0806 µg/mL; IC50 (WSU-DLCL2): 0.1169 µg/mL; IC50 (Raji): >10 µg/mL; efficacy on WSU-DLCL2-induced nude mouse subcutaneous xenograft tumor (conclusion) ([2]; 3 mg/kg or 10 mg/kg, single intravenous injection): significant efficacy; Mean tumor volume (mm^3 ± SEM) D0 ([2]; 3 mg/kg): 117.6 ± 3.0 mm^3; Mean tumor volume (mm^3 ± SEM) D21 ([2]; 3 mg/kg): 547.2 ± 38.1 mm^3; Tumor growth inhibition (%) D21 ([2]; 3 mg/kg): 39%; T/C (%) D21 ([2]; 3 mg/kg): 61%; Partial regression ([2]; 3 mg/kg): 0; Mean tumor volume (mm^3 ± SEM) D0 ([2]; 10 mg/kg): 115.0 ± 3.7 mm^3; Mean tumor volume (mm^3 ± SEM) D21 ([2]; 10 mg/kg): 167.8 ± 50.3 mm^3; Tumor growth inhibition (%) D21 ([2]; 10 mg/kg): 93%; T/C (%) D21 ([2]; 10 mg/kg): 7%; Partial regression ([2]; 10 mg/kg): 4/6 and 4; Mean tumor volume (mm^3) D0 ([3]; D0, baseline at grouping): 105.0 mm^3; % T/C D21 ([3]; single dose D0, D21): 90%; % Tumor growth inhibition D21 ([3]; single dose D0, D21): 10%; Mean tumor volume (mm^3) D21 ([3]; single dose D0, D21): 792.6 mm^3; Partial regression ([3]; single dose D0, tumors of 6): 0; Mean tumor volume (mm^3) D0 ([4]; D0, baseline at grouping): 117.1 mm^3; Mean tumor volume (mm^3) D20 ([4]; single dose D0, D20): 862.1 mm^3; Tumor growth inhibition (%) D20 ([4]; single dose D0, D20): 41%; T/C (%) D20 ([4]; single dose D0, D20, control IgG1): 59%; Partial regression ([4]; single dose D0, tumors of 6): 0; EC50 (human CD79B): 5.98 nM

Source: patent US12642862B2, “Anti-CD79B antibody-drug conjugate, and preparation method therefor and pharmaceutical use thereof” (TUOJIE BIOTECH (SHANGHAI) CO., LTD., priority 2020, dated 2026)
